Series [1] can be described thus: The drug is tested on Z-020 corresponding to rabbit gut metagenome with ENA study accession number: PRJEB37062 and ENA sample accession number: ERS12561819 for biotransformation under anaerobic condition. The drug concentrations were measured over 9 timepoints collected between 0 and 24 hours of incubation by liquid-chromatography-coupled mass spectrometry (LC–MS). The conditions noted are these: 2 µM.

Series [2] in a line: The drug is tested on Z-002 corresponding to rabbit gut metagenome with ENA study accession number: PRJEB37062 and ENA sample accession number: ERS12561802 for biotransformation under anaerobic condition. The drug concentrations were measured over 9 timepoints collected between 0 and 24 hours of incubation by liquid-chromatography-coupled mass spectrometry (LC–MS). The conditions noted are these: 2 µM.

For series [3] the following is noted: human gut metagenome, 24 h, 2 µM.
A short description of series [4]: The drug is tested on Z-008 corresponding to metagenome with ENA study accession number: PRJEB37062 and ENA sample accession number: ERS12561808 for biotransformation under anaerobic condition. The drug concentrations were measured over 9 timepoints collected between 0 and 24 hours of incubation by liquid-chromatography-coupled mass spectrometry (LC–MS). The conditions noted are these: 2 µM.

Series [5] is described as follows: The drug is tested on Z-010 corresponding to metagenome with ENA study accession number: PRJEB37062 and ENA sample accession number: ERS12561810 for biotransformation under anaerobic condition. The drug concentrations were measured over 9 timepoints collected between 0 and 24 hours of incubation by liquid-chromatography-coupled mass spectrometry (LC–MS). The conditions noted are these: 2 µM.

A short description of series [6]: The drug is tested on WLS-069 corresponding to human gut metagenome with ENA study accession number: PRJEB37062 and ENA sample accession number: ERS12561748 for biotransformation under anaerobic condition. The drug concentrations were measured over 9 timepoints collected between 0 and 24 hours of incubation by liquid-chromatography-coupled mass spectrometry (LC–MS). The conditions noted are these: 2 µM.

The nature of series [7]: The drug is tested on WLS-086 corresponding to human gut metagenome with ENA study accession number: PRJEB37062 and ENA sample accession number: ERS12561752 for biotransformation under anaerobic condition. The drug concentrations were measured over 9 timepoints collected between 0 and 24 hours of incubation by liquid-chromatography-coupled mass spectrometry (LC–MS). The settings on record: 2 µM.

For series [8] the following is noted: human gut metagenome, 24 h, 2 µM. The source holds these as a separate data set.
The nature of series [9]: The drug is tested on Z-003 corresponding to pig gut metagenome with ENA study accession number: PRJEB37062 and ENA sample accession number: ERS12561803 for biotransformation under anaerobic condition. The drug concentrations were measured over 9 timepoints collected between 0 and 24 hours of incubation by liquid-chromatography-coupled mass spectrometry (LC–MS). The conditions noted are these: 2 µM.

A short description of series [10]: The drug is tested on Z-014 corresponding to rat gut metagenome with ENA study accession number: PRJEB37062 and ENA sample accession number: ERS12561814 for biotransformation under anaerobic condition. The drug concentrations were measured over 9 timepoints collected between 0 and 24 hours of incubation by liquid-chromatography-coupled mass spectrometry (LC–MS). The settings on record: 2 µM.

For series [11] the following is noted: human gut metagenome, 24 h, 2 µM. The source holds these as a separate data set.
The conditions of series [12]: human gut metagenome, 24 h, 2 µM. This is another data set of the same source.
Series [13] is described as follows: The drug is tested on WLS-052 corresponding to human gut metagenome with ENA study accession number: PRJEB37062 and ENA sample accession number: ERS12561747 for biotransformation under anaerobic condition. The drug concentrations were measured over 9 timepoints collected between 0 and 24 hours of incubation by liquid-chromatography-coupled mass spectrometry (LC–MS). The settings on record: 2 µM.

Series [14] in a line: The drug is tested on Z-019 corresponding to rat gut metagenome with ENA study accession number: PRJEB37062 and ENA sample accession number: ERS12561818 for biotransformation under anaerobic condition. The drug concentrations were measured over 9 timepoints collected between 0 and 24 hours of incubation by liquid-chromatography-coupled mass spectrometry (LC–MS). The conditions noted are these: 2 µM.

For series [15] the following is noted: human gut metagenome, 24 h, 2 µM. The source holds these as a separate data set.
Series [16] can be described thus: The drug is tested on Z-027 corresponding to metagenome with ENA study accession number: PRJEB37062 and ENA sample accession number: ERS12561826 for biotransformation under anaerobic condition. The drug concentrations were measured over 9 timepoints collected between 0 and 24 hours of incubation by liquid-chromatography-coupled mass spectrometry (LC–MS). The conditions noted are these: 2 µM.

The nature of series [17]: The drug is tested on Z-023 corresponding to metagenome with ENA study accession number: PRJEB37062 and ENA sample accession number: ERS12561822 for biotransformation under anaerobic condition. The drug concentrations were measured over 9 timepoints collected between 0 and 24 hours of incubation by liquid-chromatography-coupled mass spectrometry (LC–MS). The settings on record: 2 µM.

For series [18] the following is noted: human gut metagenome, 24 h, 2 µM. This is another data set of the same source.
The conditions of series [19]: human gut metagenome, 24 h, 2 µM. The source holds these as a separate data set.
Series [20] in a line: The drug is tested on WLS-007 corresponding to human gut metagenome with ENA study accession number: PRJEB37062 and ENA sample accession number: ERS12561742 for biotransformation under anaerobic condition. The drug concentrations were measured over 9 timepoints collected between 0 and 24 hours of incubation by liquid-chromatography-coupled mass spectrometry (LC–MS). The settings on record: 2 µM.
Further: call rule not given here.

In the case of `C[N+]12CCC(CC1)C(OC(=O)C(O)(c1ccccc1)c1ccccc1)C2.[Br-]` (stereo not given) [CLIDINIUM BROMIDE], the “Bacterial Biotransformation” value in series [1] was “Compound NOT metabolized”; in series [2], “Compound NOT metabolized”; in series [3], “Compound metabolized”; in series [4] it was “Compound NOT metabolized”; in [5], “Compound metabolized”; in series [6], “Compound NOT metabolized”. In addition, the “Bacterial Biotransformation” value is “Compound metabolized” in series [7]; “Compound NOT metabolized” in [8]; “Compound metabolized” in series [9]; “Compound NOT metabolized” in series [10]; “Compound NOT metabolized” in [11]; “Compound NOT metabolized” in series [12]. For the same molecule, the “Bacterial Biotransformation” value in series [13] is “Compound metabolized”; in series [14] it was “Compound NOT metabolized”; in series [15], “Compound metabolized”; in series [16], “Compound NOT metabolized”; in series [17] it was “Compound metabolized”; in [18] it was “Compound metabolized”. In addition, the “Bacterial Biotransformation” value in series [19] and in series [20] was “Compound NOT metabolized” in each case.
With `Clc1cccc(Cl)c1N=C1NCCN1` [CLONIDINE], the “Bacterial Biotransformation” value in [1] was “Compound metabolized”; in [2], “Compound metabolized”; in series [3], “Compound metabolized”; in series [4], “Compound NOT metabolized”; in series [5], “Compound metabolized”; in series [6] it was “Compound metabolized”. Further, the “Bacterial Biotransformation” value is reported as “Compound metabolized” in series [7]; “Compound NOT metabolized” in [8]; “Compound metabolized” in series [9]; “Compound NOT metabolized” in [10]; “Compound NOT metabolized” in series [11]; “Compound NOT metabolized” in series [12]. Also, the “Bacterial Biotransformation” value in series [13] was “Compound NOT metabolized”; in [14], “Compound NOT metabolized”; in series [15], “Compound metabolized”; in series [16] it was “Compound NOT metabolized”; in series [17], “Compound NOT metabolized”; in series [18] it was “Compound NOT metabolized”. For the same molecule, the “Bacterial Biotransformation” value is on record as “Compound metabolized” in [19] and “Compound NOT metabolized” in series [20].
Regarding `O=C(CCCN1CCC2(CC1)C(=O)NCN2c1ccccc1)c1ccc(F)cc1` [SPIPERONE], the “Bacterial Biotransformation” value in series [1] is on record as “Compound NOT metabolized”; in [2], “Compound NOT metabolized”; in [3], “Compound metabolized”; in series [4], “Compound NOT metabolized”; in [5], “Compound metabolized”; in [6], “Compound metabolized”. Further, the “Bacterial Biotransformation” value in [7] is given as “Compound metabolized”; in series [8], “Compound NOT metabolized”; in series [9], “Compound NOT metabolized”; in series [10], “Compound NOT metabolized”; in [11], “Compound NOT metabolized”; in series [12], “Compound NOT metabolized”. Also, the “Bacterial Biotransformation” value in series [13] is “Compound NOT metabolized”; in series [14] it was “Compound NOT metabolized”; in [15], “Compound NOT metabolized”; in [16], “Compound NOT metabolized”; in series [17] it was “Compound metabolized”; in series [18] it was “Compound NOT metabolized”. Further, the “Bacterial Biotransformation” value in [19] and in series [20] was “Compound NOT metabolized” in each case.
Turning to `CCc1oc2ccccc2c1C(=O)c1cc(Br)c(O)c(Br)c1` [BENZBROMARONE], the “Bacterial Biotransformation” value in [1] is recorded as “Compound metabolized”; in series [2], “Compound metabolized”; in series [3], “Compound metabolized”; in series [4], “Compound NOT metabolized”; in series [5], “Compound metabolized”; in series [6] it was “Compound metabolized”. Besides, the “Bacterial Biotransformation” value was “Compound metabolized” in [7]; “Compound NOT metabolized” in series [8]; “Compound metabolized” in series [9]; “Compound NOT metabolized” in series [10]; “Compound metabolized” in series [11]; “Compound metabolized” in series [12]. Also, the “Bacterial Biotransformation” value was “Compound metabolized” in series [13]; “Compound NOT metabolized” in series [14]; “Compound metabolized” in [15]; “Compound NOT metabolized” in series [16]; “Compound NOT metabolized” in [17]; “Compound metabolized” in series [18]. The “Bacterial Biotransformation” value in [19] and in series [20] was “Compound metabolized” throughout.
For the molecule `CC(=O)O[C@]1(C(C)=O)CC[C@H]2[C@@H]3C=C(C)C4=CC(=O)CC[C@]4(C)[C@H]3CC[C@@]21C` [MEGESTROL ACETATE], the “Bacterial Biotransformation” value in [1] is “Compound metabolized”; in series [2], “Compound metabolized”; in series [3], “Compound metabolized”; in [4] it was “Compound NOT metabolized”; in [5], “Compound metabolized”; in series [6] it was “Compound metabolized”. Further, the “Bacterial Biotransformation” value in series [7] was “Compound metabolized”; in series [8], “Compound metabolized”; in series [9] it was “Compound metabolized”; in [10] it was “Compound NOT metabolized”; in series [11] it was “Compound metabolized”; in series [12] it was “Compound metabolized”. Moreover, the “Bacterial Biotransformation” value in [13] is “Compound metabolized”; in [14], “Compound NOT metabolized”; in [15] it was “Compound metabolized”; in series [16], “Compound metabolized”; in series [17], “Compound NOT metabolized”; in series [18], “Compound metabolized”. Moreover, the “Bacterial Biotransformation” value in series [19] and in series [20] was “Compound metabolized” in each case.

For the origin of these results see ChEMBL document CHEMBL5724914, “Linking interpersonal differences in gut microbiota composition and drug biotransformation activity” (2024).
